Data from patent US12642793B2, “Compositions and methods to treat gastrointestinal diseases and disorders” (CEDARS-SINAI MEDICAL CENTER, priority 2019, dated 2026).

Assays:
[1] = system: anaerobes in patient duodenum aspirate; assay: Culture of patient duodenum aspirate on blood agar; assay type: cell-based; settings: for Blood agar (CFU/mL), Before Rifaximin: With DTT
Description: (§1) Culture: blood agar and MacConkey aerobically, and blood agar anaerobically. […] Culture: MacConkey aerobically and blood agar anaerobically. […] Culture: MacConkey aerobically and blood agar anaerobically. […] Culture: MacConkey aerobically and blood agar anaerobically. […]

[2] = system: Gram-negative bacteria in patient duodenum aspirate; assay: Culture of patient duodenum aspirate on MacConkey agar aerobically; assay type: cell-based; settings: for MacConkey agar (CFU/mL), Before Rifaximin: With DTT; for MacConkey agar (CFU/mL), Rifaximin treatment: aerobically
Description: as §1

[3] = Experiment 1, rifaximin dose 0.01 g/mL

SMILES: O[C@H](CS)[C@H](O)CS (racemic) [DTT, dithiothreitol]
- Blood agar (CFU/mL), Before Rifaximin ([1]; Experiment 1): 72000 CFU/mL
- Blood agar (CFU/mL), Before Rifaximin ([1]; Experiment 2): too high
- Blood agar (CFU/mL), Before Rifaximin ([1]; Experiment 3): 60000 CFU/mL
- Blood agar (CFU/mL), Before Rifaximin ([1]; Experiment 4): 1600000 CFU/mL
- MacConkey agar (CFU/mL), Before Rifaximin ([2]; Experiment 1): 4800 CFU/mL
- MacConkey agar (CFU/mL), Before Rifaximin ([2]; Experiment 2): 338000 CFU/mL
- MacConkey agar (CFU/mL), Before Rifaximin ([2]; Experiment 3): 20 CFU/mL
- MacConkey agar (CFU/mL), Before Rifaximin ([2]; Experiment 4): 0 CFU/mL

SMILES: CO[C@H]1/C=C/O[C@@]2(C)Oc3c(C)c(O)c4c(O)c(c5c(nc6cc(C)ccn65)c4c3C2=O)NC(=O)/C(C)=C\C=C\[C@H](C)[C@H](O)[C@@H](C)[C@@H](O)[C@@H](C)[C@H](OC(C)=O)[C@@H]1C [Rifaximin, rifaximin]
- Blood agar (CFU/mL), Rifaximin treatment [1, 3]: 6000 CFU/mL
- Blood agar (CFU/mL), Rifaximin treatment ([1]; Experiment 2, rifaximin dose 0.1 g/mL, anaerobically): too high
- Blood agar (CFU/mL), Rifaximin treatment ([1]; Experiment 3, rifaximin dose 0.01 g/mL, anaerobically): 800 CFU/mL
- Blood agar (CFU/mL), Rifaximin treatment ([1]; Experiment 4, rifaximin dose 0.1 g/mL, anaerobically): 16000 CFU/mL
- MacConkey agar (CFU/mL), Rifaximin treatment [2, 3]: 4000 CFU/mL
- MacConkey agar (CFU/mL), Rifaximin treatment ([2]; Experiment 2, rifaximin dose 0.1 g/mL): 343000 CFU/mL
- MacConkey agar (CFU/mL), Rifaximin treatment ([2]; Experiment 3, rifaximin dose 0.01 g/mL): 40 CFU/mL
- MacConkey agar (CFU/mL), Rifaximin treatment ([2]; Experiment 4, rifaximin dose 0.1 g/mL): 0 CFU/mL
